Laboratory results: patent US20250059231A1, “Protease inhibitors” (priority 2021, published 2025)
pEC50, pIC50: −log10 of the molar value. Like-named read-outs stand apart in the source and are kept apart here. Where a SMILES comes first, the peptide text is derived from it. [ ]: non-standard residue; d: D form. The star is where a group is joined. Palmitoyl = CCCCCCCCCCCCCCCC(=O)*; hPhe = N[C@@H](CCc1ccccc1)C(=O)O; β3hK = NCCCC[C@H](N)CC(=O)O

Assays:
ZIKA protease = target: T1, ZIKA protease (Zika virus, UniProt Q32ZE1); experiment: biochemical; conditions: for inhibition at 1 µM / inhibition at 50 µM: read-out: inhibition of ZIKV
T1 construct: a trypsin-like serine protease domain in the N-terminal region of the flaviviral NS3 proteins
Protocol: (§1) By catalytic activity of the protease, the cleaved substrate results in increased fluorescence that can be monitored using a BMG Labtech Fluostar OPTIMA Microtiter fluorescence plate reader (excitation wavelength of 320 nm and a monitored emission wavelength of 405 nm). Dilutions were made starting from 10 mM stock solutions in DMSO and final concentrations were measured in triplicates. The inhibitors were preincubated for 15 min with DENV protease (100 nM) in the assay buffer (50 mM Tris-HCl pH 9.0, ethylene glycol (10% v/v), and 0.0016% Brij 58). The enzymatic reaction was initiated by the addition of the FRET substrate (final concentration 50 μM) to obtain a final assay volume of 100 μL per well. The enzymatic activity was monitored for 15 min and determined as a slope of relative fluorescence units per second (RFU/s) for each concentration. The mean of the triplicates were plotted against the corresponding concentration in CDDVault to determine the IC50-values. Analogous procedures were used to determine the inhibitory potency on WNV (Kühl et al., J. Med. Chem. 2020, 63 (15): 8179-8197) and ZIKA protease (Nitsche et al., ACS Med. Chem. Lett. 2019 Feb. 14; 10 (2): 168-174). For selectivity screening of active candidates, similar biochemical assays with human serine proteases trypsin (Weigel et al., J. Med. Chem. 2015, 58 (19), 7719-7733.) and/or thrombin (Nitsche et al., J. Med. Chem. 2013, 56 (21), 8389-8403) were used.

WNV protease [1] = target: T2, WNV protease (West Nile virus, UniProt P06935); experiment: WNV protease assay (analogous procedure); format: biochemical; conditions: read-out: IC50 for WNNV
T2 construct: a trypsin-like serine protease domain in the N-terminal region of the flaviviral NS3 proteins

WNV protease [2] = target: T2, WNV protease; experiment: WNV protease assay (analogous procedure); format: biochemical; conditions: at 50 μM
Protocol: as §1

human Thrombin = human Thrombin (Homo sapiens, UniProt P00734); experiment: Selectivity screening, human serine protease thrombin; format: biochemical; conditions: read-out: inhibition of human Thrombin
Protocol: as §1

DENV protease = target: T3, DENV protease (Dengue virus type 2, UniProt P29990); experiment: biochemical; conditions: read-out: inhibition of DENV
T3 construct: The virus-encoded dengue protease comprises the amino-terminal 180 amino acids of NS3 (NS3pro) of the polyprotein
Outline: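 DENV protease (100 nM) was pre-incubated 15 min with inhibitors in 50 mM Tris-HCl pH 9.0, 10% ethylene glycol, 0.0016% Brij 58. FRET substrate (50 μM final) started the reaction, monitored 15 min as RFU/s slope. IC50 came from triplicate means versus concentration.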

human Trypsin = human Trypsin (Homo sapiens, UniProt P07477); experiment: Selectivity screening, human serine protease trypsin; format: biochemical; conditions: read-out: inhibition of human Trypsin
Protocol: as §1

T3 sequence (P29990 1398-1437): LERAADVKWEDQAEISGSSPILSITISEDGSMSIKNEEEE
T3 sequence (P29990 1476-1653): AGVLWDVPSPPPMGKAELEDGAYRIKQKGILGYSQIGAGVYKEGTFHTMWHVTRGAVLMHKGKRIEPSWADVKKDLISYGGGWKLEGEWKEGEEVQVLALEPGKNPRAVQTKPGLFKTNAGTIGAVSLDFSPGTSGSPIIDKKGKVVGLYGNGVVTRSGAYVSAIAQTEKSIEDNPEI
T2 sequence (P06935 1424-1463): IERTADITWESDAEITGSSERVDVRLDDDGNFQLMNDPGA
T2 sequence (P06935 1502-1679): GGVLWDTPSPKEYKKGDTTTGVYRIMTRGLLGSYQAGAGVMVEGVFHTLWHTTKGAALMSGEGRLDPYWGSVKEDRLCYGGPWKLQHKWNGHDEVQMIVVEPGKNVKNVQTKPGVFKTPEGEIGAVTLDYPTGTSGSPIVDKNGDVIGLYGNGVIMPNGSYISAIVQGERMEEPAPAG
T1 sequence (Q32ZE1 1499-1676): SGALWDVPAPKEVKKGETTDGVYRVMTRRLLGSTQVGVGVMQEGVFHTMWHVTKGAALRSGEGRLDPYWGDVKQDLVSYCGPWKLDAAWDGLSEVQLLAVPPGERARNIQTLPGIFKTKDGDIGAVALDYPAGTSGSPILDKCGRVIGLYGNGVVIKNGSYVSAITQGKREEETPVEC
T1 sequence (Q32ZE1 1421-1460): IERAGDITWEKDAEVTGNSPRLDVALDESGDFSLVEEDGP

SMILES	pIC50 (ZIKA protease)	inhibition at 1 µM (ZIKA protease; at 1 μM) [%]	inhibition at 50 µM (ZIKA protease; at 50 μM) [%]	pIC50 (WNV protease [1])	inhibition at 50 µM (WNV protease [2]) [%]	pEC50 (West Nile virus)	inhibition at 5 µM (human Thrombin; at 5 μM) [%]	inhibition at 50 µM (DENV protease) [%]	inhibition at 5 µM (human Trypsin; at 5 μM) [%]	inhibition at 25 µM (human Trypsin; at 25 μM) [%]	pEC50 (ZIKV)	inhibition at 1 µM (DENV protease; at 1 μM) [%]	inhibition at 1 µM (ZIKA protease) [%]	inhibition at 50 µM (ZIKA protease) [%]	inhibition at 5 µM (human Thrombin) [%]	inhibition at 5 µM (human Trypsin) [%]	inhibition at 25 µM (human Trypsin) [%]	inhibition at 1 µM (DENV protease) [%]
CCCCCCCCCCCCCCCC(=O)N[C@@H](CCCCN)C(=O)N[C@@H](C)C(=O)N[C@@H](C)C(=O)N[C@@H](CCCCN)C(=O)C(N)=O [compound 9]	≥ 4.60	≥ 10	≥ 65	≥ 4.40	≥ 25	≥ 4.60	< 5	≥ 25										
CCCCCCCCCCCCCCCC(=O)N[C@@H](CCCCN)C(=O)N1CCC[C@H]1C(=O)N[C@@H](C)C(=O)N[C@@H](CCCCN)C(=O)C(N)=O [compound 10]	≥ 4.60		≥ 65	≥ 4.40	≥ 25	≥ 4.60	< 5	≥ 25	< 10									
CCCCCCCCCCCCCCCC(=O)N[C@H](CCCNC(=N)N)C(=O)N[C@@H](CCC(N)=O)C(=O)N[C@@H](Cc1ccccc1)C(N)=O [compound 44] (Palmitoyl-[dR]-Gln-Phe-NH2)	≥ 4.60	≥ 10	≥ 65	≥ 4.40	≥ 25	≥ 4.60	< 5	≥ 25	< 10	< 20	≥ 5.00							
CCCCCCCCCCCCCCCC(=O)N[C@@H](CCCNC(=N)N)C(=O)N[C@@H](CCC(N)=O)C(=O)N[C@H](Cc1ccccc1)C(N)=O [compound 49] (Palmitoyl-Arg-Gln-[dF]-NH2)	≥ 4.60	≥ 10	≥ 65					≥ 25			≥ 5.00	≥ 20						
CCCCCCCCCCCCCCCC(=O)N[C@@H](CCCNC(=N)N)C(=O)N[C@@H](CC(N)=O)C(=O)N[C@@H](Cc1ccccc1)C(N)=O [compound 50] (Palmitoyl-Arg-Asn-Phe-NH2)	≥ 4.60	≥ 10	≥ 65			≥ 4.60		≥ 25			≥ 5.00	≥ 20						
CCCCCCCCCCCCCCCC(=O)N[C@@H](CCCNC(=N)N)C(=O)N[C@@H](C)C(=O)N[C@@H](CCc1ccccc1)C(N)=O [compound 51] (Palmitoyl-Arg-Ala-[hPhe]-NH2)	≥ 4.60	≥ 10	≥ 65			≥ 4.60		≥ 25			≥ 5.00	≥ 20						
CCCCCCCCCCCCCCCC(=O)N[C@@H](CCCNC(=N)N)C(=O)N[C@@H](CCC(N)=O)C(=O)N[C@@H](CCc1ccccc1)C(N)=O [compound 53] (Palmitoyl-Arg-Gln-[hPhe]-NH2)	≥ 4.60		≥ 65			≥ 4.60		≥ 25			≥ 5.00							
CCCCCCCCCCCCCCCC(=O)N[C@@H](C)C(=O)N[C@@H](CCCNC(=N)N)C(=O)N[C@@H](CCC(N)=O)C(=O)N[C@@H](Cc1ccccc1)C(N)=O [compound 54] (Palmitoyl-ARQF-NH2)	≥ 4.60	≥ 10	≥ 65			≥ 4.60		≥ 25			≥ 5.00							
CCCCCCCCCCCCCCCC(=O)N[C@@H](CCCCN)CC(=O)N[C@@H](C)C(=O)N[C@H](C)C(=O)N[C@@H](CCCCN)C(N)=O [compound 114] (Palmitoyl-[β3hK]A[dA]K-NH2)	≥ 4.60	≥ 10	≥ 65	≥ 4.40		≥ 4.60		≥ 25	< 10	< 20	≥ 5.00	≥ 20						
CCCCCCCCCCCCCCCC(=O)N[C@@H](CCCCN)CN1CCC[C@H]1C(=O)N[C@@H](C)C(=O)N[C@H](CCc1ccccc1)C(N)=O [compound 118]	≥ 4.60	≥ 10	≥ 65	≥ 4.40	≥ 25	≥ 4.60	< 5	≥ 25	< 10	< 20	≥ 5.00							
CCCCCCCCCCCCCCCC(=O)N[C@@H](CCCCN)C(=O)N[C@@H](C)C(=O)N[C@@H](C)C(=O)N[C@H](CCCCN)C(=O)c1ccccc1 [compound 136]	≥ 4.60			≥ 4.40	≥ 25	≥ 4.60		≥ 25					≥ 10	≥ 65	< 5	< 10	< 20	≥ 20
CCCCCCCCCCCCCCCC(=O)N[C@@H](CCCCC(=N)N)C(=O)N[C@@H](Cc1c[nH]cn1)C(N)=O [compound 170]	≥ 4.60		≥ 65	≥ 4.40	≥ 25	≥ 4.60	< 5	≥ 25	< 10	< 20	≥ 5.00							
CCCCCCCCCCCCCCCC(=O)N[C@@H](CCCCN)C(=O)N[C@@H](C)C(=O)N[C@@H](C)C(=O)N[C@H](Cc1c[nH]cn1)C(N)=O [compound 171] (Palmitoyl-KAA[dH]-NH2)	≥ 4.60		≥ 65	≥ 4.40	≥ 25		< 5	≥ 25	< 10	< 20								
CCCCCCCCCCCCCCCC(=O)N[C@@H](CCCCN)C(=O)N[C@@H](C)C(=O)N[C@@H](CCCCN)C(C)=O [compound 175]	≥ 4.60		≥ 65	≥ 4.40	≥ 25		< 5	≥ 25	< 10	< 20								
CCCCCCCCCCCCCCCC(=O)N[C@@H](CCCCN)C(=O)N[C@@H](C)C(=O)N[C@@H](C)C(=O)N[C@@H](CCCCN)C(=O)O [compound 189] (Palmitoyl-KAAK-OH)	≥ 4.60	≥ 10	≥ 65	≥ 4.40		≥ 4.60	< 5	≥ 25	< 10	< 20	≥ 5.00							
CCCCCCCCCCCCCCCC(=O)N[C@H](CCCCN)C(=O)N1CCC[C@H]1C(=O)N[C@@H](C)C(=O)N[C@@H](Cc1c[nH]c2ccccc12)C(N)=O [compound 196] (Palmitoyl-[dK]PAW-NH2)	≥ 4.60		≥ 65	≥ 4.40	≥ 25	≥ 4.60	< 5	≥ 25	< 10	< 20	≥ 5.00							
